Calls of active or inactive are those of the source. No cut-off for these calls is given here.
Columns and labels:
[1] = target: Proto-oncogene tyrosine-protein kinase Src (Homo sapiens) (UniProt P12931); assay: Inhibition of c-Src phosphorylation in human A549 cells at 3 to 9 uM after 24 hrs by Western blot analysis; format: cell-based
[2] = target: 72 kDa type IV collagenase (Homo sapiens) (UniProt P08253); assay: Inhibition of MMP2 activity in human H1299 cells at 3 uM after 48 hrs by gelatin zymography; format: cell-based
NCI-H1299 [3] = assay: Inhibition of cell invasion in human H1299 cells at 1 to 3 uM after 24 hrs by Boyden's chamber transwell invasion assay; format: functional, cell-based
NCI-H1299 [4] = assay: Antimigratory activity in human H1299 cells at 1 to 6 uM incubated for 24 hrs by wound healing assay; format: functional, cell-based
NCI-H1299 [5] = assay: Inhibition of MMP9 mRNA expression in human H1299 cells at 3 uM after 48 hrs by RT-PCR analysis; format: functional, cell-based
[6] = target: Matrix metalloproteinase-9 (Homo sapiens) (UniProt P14780); assay: Inhibition of MMP9 activity in human H1299 cells at 3 uM after 48 hrs by gelatin zymography; format: cell-based
A549 [7] = assay: Inhibition of cell invasion in human A549 cells at 1 to 3 uM after 24 hrs by Boyden's chamber transwell invasion assay; format: functional, cell-based
NCI-H1299 [8] = assay: Inhibition of MMP2 mRNA expression in human H1299 cells at 3 uM after 48 hrs by RT-PCR analysis; format: functional, cell-based
A549 [9] = assay: Induction of apoptosis in human A549 cells assessed as late apoptotic cells at 9 uM after 24 hrs by flow cytometry (reference value: 7.9%); format: functional
A549 [10] = assay: Inhibition of MMP9 mRNA expression in human A549 cells at 3 uM after 48 hrs by RT-PCR analysis; format: functional, cell-based
A549 [11] = assay: Inhibition of MMP2 mRNA expression in human A549 cells at 3 uM after 48 hrs by RT-PCR analysis; format: functional, cell-based
A549 [12] = assay: Induction of apoptosis in human A549 cells assessed as dead cells at 9 uM after 24 hrs by flow cytometry (reference value: 0%); format: functional
A549 [13] = assay: Cytotoxicity against human A549 cells assessed as cell survival up to 10 uM incubated for 24 hrs by CCK8 assay; format: functional
A549 [14] = assay: Cell cycle arrest in human A549 cells assessed as accumulation at S phase at 9 uM after 24 hrs by flow cytometry (reference value: 18.3%); format: functional
[15] = target: 72 kDa type IV collagenase (Homo sapiens) (UniProt P08253); assay: Inhibition of MMP2 activity in human A549 cells at 3 to 9 uM after 48 hrs by gelatin zymography; format: cell-based
A549 [16] = assay: Cell cycle arrest in human A549 cells assessed as accumulation at G2/M phase at 9 uM after 24 hrs by flow cytometry (reference value: 15.1%); format: functional
A549 [17] = assay: Induction of apoptosis in human A549 cells assessed as early apoptotic cells at 9 uM after 24 hrs by flow cytometry (reference value: 15.45%); format: functional
[18] = target: Focal adhesion kinase 1 (Homo sapiens) (UniProt Q05397); assay: Inhibition of FAK phosphorylation in human A549 cells at 3 to 9 uM after 24 hrs by Western blot analysis; format: cell-based
[19] = target: MAP kinase p38 (Homo sapiens) (UniProt O15264+Q15759+Q16539+P53778); assay: Inhibition of p38 phosphorylation in human A549 cells at 3 to 9 uM after 24 hrs by Western blot analysis; format: cell-based
[20] = target: c-Jun N-terminal kinase, JNK (Homo sapiens) (UniProt P45983+P53779+P45984); assay: Inhibition of JNK phosphorylation in human A549 cells at 3 to 9 uM after 24 hrs by Western blot analysis; format: cell-based
[21] = target: Mitogen-activated protein kinase; ERK1/ERK2 (Homo sapiens) (UniProt P27361+P28482); assay: Inhibition of ERK1/2 phosphorylation in human A549 cells after 24 hrs by Western blot analysis; format: cell-based
[22] = target: Matrix metalloproteinase-9 (Homo sapiens) (UniProt P14780); assay: Inhibition of MMP9 activity in human A549 cells at 3 to 9 uM after 48 hrs by gelatin zymography; format: cell-based
A549 [23] = assay: Cell cycle arrest in human A549 cells assessed as accumulation at G0/G1 phase at 9 uM after 24 hrs by flow cytometry (reference value: 66.5%); format: functional
A549 [24] = assay: Antimigratory activity in human A549 cells incubated for 24 hrs by wound healing assay; format: functional, cell-based
A549 [25] = assay: Induction of apoptosis in human A549 cells assessed as live cells at 9 uM after 24 hrs by flow cytometry (reference value: 76.65%); format: functional
[26] = target: T1, Catenin beta-1 (Homo sapiens) (UniProt P35222); assay: Inhibition of beta-catenin signalling in human A549 cells assessed as reduction in beta-catenin level at 3 to 9 uM after 24 hrs by Western blot analysis; format: cell-based
T1 sequence (whole entry): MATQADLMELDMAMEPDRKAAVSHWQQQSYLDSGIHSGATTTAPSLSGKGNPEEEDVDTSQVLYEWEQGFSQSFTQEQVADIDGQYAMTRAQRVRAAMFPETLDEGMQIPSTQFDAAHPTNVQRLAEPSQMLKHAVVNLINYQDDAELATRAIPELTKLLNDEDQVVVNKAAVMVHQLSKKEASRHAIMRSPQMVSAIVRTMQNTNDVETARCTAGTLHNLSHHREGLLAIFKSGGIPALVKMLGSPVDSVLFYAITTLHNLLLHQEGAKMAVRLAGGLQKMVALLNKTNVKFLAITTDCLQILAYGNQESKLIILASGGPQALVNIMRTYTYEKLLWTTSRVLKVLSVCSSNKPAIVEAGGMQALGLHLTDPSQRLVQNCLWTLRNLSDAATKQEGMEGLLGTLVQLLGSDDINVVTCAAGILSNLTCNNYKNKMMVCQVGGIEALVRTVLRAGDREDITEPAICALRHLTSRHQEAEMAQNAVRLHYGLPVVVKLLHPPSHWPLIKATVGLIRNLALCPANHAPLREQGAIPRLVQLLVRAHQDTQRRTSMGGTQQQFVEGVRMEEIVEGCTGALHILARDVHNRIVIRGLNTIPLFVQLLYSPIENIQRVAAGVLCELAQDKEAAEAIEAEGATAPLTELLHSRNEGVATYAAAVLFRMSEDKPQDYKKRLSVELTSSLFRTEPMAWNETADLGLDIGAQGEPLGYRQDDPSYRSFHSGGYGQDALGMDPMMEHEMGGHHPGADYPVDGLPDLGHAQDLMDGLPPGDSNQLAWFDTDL

72 kDa type IV collagenase (Homo sapiens), sequence (P08253 110-660 limits assumed): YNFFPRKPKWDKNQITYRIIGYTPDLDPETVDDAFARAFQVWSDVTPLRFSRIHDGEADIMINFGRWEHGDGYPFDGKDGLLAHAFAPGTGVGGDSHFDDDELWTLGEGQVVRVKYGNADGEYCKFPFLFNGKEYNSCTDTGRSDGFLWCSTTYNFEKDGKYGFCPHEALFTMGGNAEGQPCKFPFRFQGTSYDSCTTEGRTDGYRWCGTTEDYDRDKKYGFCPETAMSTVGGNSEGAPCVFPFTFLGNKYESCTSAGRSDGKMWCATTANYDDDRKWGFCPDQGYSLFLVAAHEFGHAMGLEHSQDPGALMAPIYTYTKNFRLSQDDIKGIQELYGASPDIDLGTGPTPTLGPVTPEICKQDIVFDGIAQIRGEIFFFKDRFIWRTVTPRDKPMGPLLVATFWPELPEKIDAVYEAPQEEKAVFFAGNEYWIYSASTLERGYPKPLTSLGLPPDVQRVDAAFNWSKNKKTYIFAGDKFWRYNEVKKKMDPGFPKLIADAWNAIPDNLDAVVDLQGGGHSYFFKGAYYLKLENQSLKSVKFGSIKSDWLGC
Matrix metalloproteinase-9 (Homo sapiens), sequence (P14780 whole entry): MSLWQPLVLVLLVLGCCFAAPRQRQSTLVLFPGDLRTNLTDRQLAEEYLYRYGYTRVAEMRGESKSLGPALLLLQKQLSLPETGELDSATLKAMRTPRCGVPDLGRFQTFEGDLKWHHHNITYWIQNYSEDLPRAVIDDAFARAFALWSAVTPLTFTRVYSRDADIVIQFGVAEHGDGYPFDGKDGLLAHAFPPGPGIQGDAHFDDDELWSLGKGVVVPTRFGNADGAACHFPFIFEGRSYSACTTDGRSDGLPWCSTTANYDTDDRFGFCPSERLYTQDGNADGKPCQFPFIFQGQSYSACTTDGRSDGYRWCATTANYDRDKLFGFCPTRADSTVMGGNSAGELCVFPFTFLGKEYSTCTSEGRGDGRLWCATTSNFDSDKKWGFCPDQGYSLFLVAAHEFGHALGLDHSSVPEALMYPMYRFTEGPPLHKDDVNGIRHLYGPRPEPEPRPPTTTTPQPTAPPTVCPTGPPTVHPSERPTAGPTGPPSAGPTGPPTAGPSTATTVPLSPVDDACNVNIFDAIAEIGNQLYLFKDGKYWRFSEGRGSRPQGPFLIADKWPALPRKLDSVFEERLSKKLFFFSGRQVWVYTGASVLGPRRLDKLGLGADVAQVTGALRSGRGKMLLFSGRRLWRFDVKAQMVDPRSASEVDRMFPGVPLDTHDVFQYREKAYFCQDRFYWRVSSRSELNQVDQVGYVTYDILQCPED
Proto-oncogene tyrosine-protein kinase Src (Homo sapiens), sequence (P12931 2-536 limits assumed): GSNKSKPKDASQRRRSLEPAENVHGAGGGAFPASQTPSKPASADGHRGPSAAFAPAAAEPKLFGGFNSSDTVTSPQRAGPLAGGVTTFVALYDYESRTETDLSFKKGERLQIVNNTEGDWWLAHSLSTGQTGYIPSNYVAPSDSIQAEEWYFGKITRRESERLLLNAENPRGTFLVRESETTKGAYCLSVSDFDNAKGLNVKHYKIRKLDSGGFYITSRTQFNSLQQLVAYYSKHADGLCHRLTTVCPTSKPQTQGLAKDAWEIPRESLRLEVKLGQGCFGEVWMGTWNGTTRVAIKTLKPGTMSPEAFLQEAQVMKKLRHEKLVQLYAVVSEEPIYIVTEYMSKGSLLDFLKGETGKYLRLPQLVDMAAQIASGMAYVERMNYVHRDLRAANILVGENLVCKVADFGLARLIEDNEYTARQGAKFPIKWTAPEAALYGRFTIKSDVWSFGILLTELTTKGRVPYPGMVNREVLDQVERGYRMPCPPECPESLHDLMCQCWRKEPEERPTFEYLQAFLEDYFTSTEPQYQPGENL
Focal adhesion kinase 1 (Homo sapiens), sequence (Q05397 2-1052 limits assumed): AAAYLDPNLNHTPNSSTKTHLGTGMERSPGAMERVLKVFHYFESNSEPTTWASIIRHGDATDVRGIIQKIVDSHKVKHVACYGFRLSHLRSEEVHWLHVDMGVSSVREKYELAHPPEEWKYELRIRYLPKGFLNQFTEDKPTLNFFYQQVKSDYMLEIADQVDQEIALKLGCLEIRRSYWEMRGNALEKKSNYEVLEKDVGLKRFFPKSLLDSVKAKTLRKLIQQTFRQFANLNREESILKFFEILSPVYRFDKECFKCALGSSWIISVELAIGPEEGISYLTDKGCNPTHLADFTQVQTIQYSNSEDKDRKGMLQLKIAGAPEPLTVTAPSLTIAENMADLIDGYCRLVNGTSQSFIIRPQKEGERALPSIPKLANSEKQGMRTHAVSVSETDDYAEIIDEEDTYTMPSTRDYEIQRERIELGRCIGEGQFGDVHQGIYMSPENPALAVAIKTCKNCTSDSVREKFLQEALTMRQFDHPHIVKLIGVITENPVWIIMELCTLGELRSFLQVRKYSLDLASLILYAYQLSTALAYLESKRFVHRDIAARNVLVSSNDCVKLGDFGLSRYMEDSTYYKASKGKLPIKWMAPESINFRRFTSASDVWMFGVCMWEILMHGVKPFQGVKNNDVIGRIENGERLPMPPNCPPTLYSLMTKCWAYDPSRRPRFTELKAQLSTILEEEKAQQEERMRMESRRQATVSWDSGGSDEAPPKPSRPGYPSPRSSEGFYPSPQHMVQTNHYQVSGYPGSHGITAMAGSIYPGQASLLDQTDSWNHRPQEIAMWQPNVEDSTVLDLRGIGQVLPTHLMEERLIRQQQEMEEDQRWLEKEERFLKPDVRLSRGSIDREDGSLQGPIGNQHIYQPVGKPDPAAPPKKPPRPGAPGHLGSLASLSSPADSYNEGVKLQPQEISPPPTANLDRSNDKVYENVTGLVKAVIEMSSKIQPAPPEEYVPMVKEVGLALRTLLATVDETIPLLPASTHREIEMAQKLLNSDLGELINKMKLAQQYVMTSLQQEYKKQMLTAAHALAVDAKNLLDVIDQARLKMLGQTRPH
Mitogen-activated protein kinase; ERK1/ERK2 (Homo sapiens), sequence (P27361 whole entry, looked up): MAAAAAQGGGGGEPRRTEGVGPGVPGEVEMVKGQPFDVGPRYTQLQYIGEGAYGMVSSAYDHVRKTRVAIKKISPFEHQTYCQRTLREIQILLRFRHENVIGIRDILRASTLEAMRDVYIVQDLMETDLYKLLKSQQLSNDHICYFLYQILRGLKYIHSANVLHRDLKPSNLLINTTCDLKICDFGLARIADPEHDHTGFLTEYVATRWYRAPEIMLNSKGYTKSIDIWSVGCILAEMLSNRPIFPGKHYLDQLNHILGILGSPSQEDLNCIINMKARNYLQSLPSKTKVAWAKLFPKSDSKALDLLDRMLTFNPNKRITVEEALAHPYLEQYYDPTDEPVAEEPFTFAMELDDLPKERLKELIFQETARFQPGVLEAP
Mitogen-activated protein kinase; ERK1/ERK2 (Homo sapiens), sequence (P28482 whole entry, looked up): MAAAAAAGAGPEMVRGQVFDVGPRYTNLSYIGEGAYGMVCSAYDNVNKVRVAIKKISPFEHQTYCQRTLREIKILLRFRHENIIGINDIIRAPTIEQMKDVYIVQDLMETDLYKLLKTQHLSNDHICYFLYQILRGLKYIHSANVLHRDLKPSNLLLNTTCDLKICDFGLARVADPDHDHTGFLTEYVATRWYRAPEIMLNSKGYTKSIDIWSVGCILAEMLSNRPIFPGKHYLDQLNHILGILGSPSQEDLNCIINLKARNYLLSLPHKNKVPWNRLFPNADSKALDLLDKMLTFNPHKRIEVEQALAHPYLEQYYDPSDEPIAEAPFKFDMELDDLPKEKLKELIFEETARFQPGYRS

## C[C@H]1CC[C@@]2(OC1)O[C@H]1C[C@H]3[C@@H]4CC[C@@H]5C[C@@H](O[C@@H]6O[C@H](CO)[C@@H](O)[C@H](O)[C@H]6O[C@@H]6O[C@H](CO)[C@@H](O)[C@H](O)[C@H]6O)CC[C@]5(C)[C@H]4CC[C@]3(C)[C@H]1[C@@H]2C
[1]
  inhibition: Active
[2]
  inhibition: Active
NCI-H1299 [3]
  inhibition: Active
NCI-H1299 [4]
  inhibition: Active
NCI-H1299 [5]
  inhibition: Active
[6]
  inhibition: Active
A549 [7]
  inhibition: Active
NCI-H1299 [8]
  inhibition: Active
A549 [9]
  Activity: 16.6%
A549 [10]
  inhibition: Active
A549 [11]
  inhibition: Active
A549 [12]
  Activity: 0%
A549 [13]
  Survival: <50%
A549 [14]
  Activity: 11.2%
[15]
  inhibition: Active
A549 [16]
  Activity: 14%
A549 [17]
  Activity: 29.25%
[18]
  inhibition: Active
[19]
  inhibition: inactive
[20]
  inhibition: inactive
[21]
  inhibition: Dose-dependent effect
[22]
  inhibition: Active
A549 [23]
  Activity: 74.8%
A549 [24]
  inhibition: Dose-dependent effect
A549 [25]
  Activity: 54.15%
[26]
  inhibition: Active

Reference: ChEMBL document CHEMBL4431322, “Timosaponin AIII inhibits migration and invasion of A549 human non-small-cell lung cancer cells via attenuations of MMP-2 and MMP-9 by inhibitions of ERK1/2, Src/FAK and β-catenin signaling pathways” (2016)
